# Assays:
# STAT5 = conditions: original high-throughput screen; cited from earlier work
# [1] = biological target: proteins of U3A human fibrosarcoma cells (4462 proteins detected) (Homo sapiens, UniProt P49915); format: cell-based; conditions: protein GMPS; soluble abundance after heat, U3A cells
# [2] = biological target: proteins of U3A human fibrosarcoma cells (4462 proteins detected) (Homo sapiens, UniProt Q12931); format: cell-based; conditions: protein TRAP1; U3A cells
# [3] = biological target: proteins of U3A human fibrosarcoma cells (4462 proteins detected) (Homo sapiens, UniProt O00244); format: cell-based; conditions: protein ATOX1, U3A cells
# [4] = biological target: proteins of U3A human fibrosarcoma cells (4462 proteins detected) (Homo sapiens, UniProt Q92688); format: cell-based; conditions: protein ANP32B, U3A cells
# [5] = biological target: proteins of U3A human fibrosarcoma cells (4462 proteins detected) (Homo sapiens, UniProt Q9BVS5); format: cell-based; conditions: protein TRMT61B; soluble abundance after heat, U3A cells
# [6] = biological target: proteins of U3A human fibrosarcoma cells (4462 proteins detected) (Homo sapiens, UniProt P00519); format: cell-based; conditions: protein ABL1; U3A cells
# [7] = biological target: proteins of U3A human fibrosarcoma cells (4462 proteins detected) (Homo sapiens, UniProt Q9H3U1); format: cell-based; conditions: protein UNC45A; U3A cells
# [8] = biological target: proteins of U3A human fibrosarcoma cells (4462 proteins detected) (Homo sapiens, UniProt P06748); format: cell-based; conditions: protein NPM1; U3A cells
# [9] = biological target: proteins of U3A human fibrosarcoma cells (4462 proteins detected) (Homo sapiens, UniProt Q8WW01); format: cell-based; conditions: protein TSEN15; U3A, 10 μM, 2 h
# [10] = biological target: proteins of U3A human fibrosarcoma cells (4462 proteins detected) (Homo sapiens, UniProt Q9UIC8); format: cell-based; conditions: protein LCMT1, U3A cells
# [11] = biological target: proteins of U3A human fibrosarcoma cells (4462 proteins detected) (Homo sapiens, UniProt Q99633); format: cell-based; conditions: protein PRPF18; U3A cells
# [12] = tested on: RNA pol II recruitment in SKBR3 cells; assay: Chromatin immunoprecipitation, RNA polymerase II binding at target genes; format: cell-based, human; conditions: 10 μM 1 h, 10 ng/ml LIF 30 min
# Description: Nuclei were centrifuged at 660g for 5 min at 4 °C and lysed in 300 μl of nuclear lysis buffer (50 mM Tris [pH 8.1], 10 mM EDTA, 1% SDS, and phosphatase and protease inhibitors). […] Lysate was then added to 60 μl of Protein A/G PLUS agarose beads (catalog no.: 2003; Santa Cruz Biotechnology) and rotated for 4 to 6 h at 4 °C. […] Beads were resuspended in 150 μl elution buffer (100 mM sodium bicarbonate and 1% SDS) and incubated overnight at 65 °C. DNA was purified using a PCR Purification Kit (Qiagen) according to the manufacturer's protocol. qPCR was performed using the indicated primers (Table S3). Results were normalized to input.
# [13] = tested on: nuclear pSTAT3 and total STAT3 in U3A cells; assay: Nuclear and cytoplasmic fractionation immunoblotting in OSM-stimulated U3A cells; format: cell-based, human; conditions: 10 μM 1 h, 10 ng/ml OSM 30 min
# Description: It should be noted that, given the variability inherent in chromatin immunoprecipitation (IP), few of the individual changes in binding reached statistical significance. However, the trend in each of the five genes was identical.
# B, MDA-MB-468 cells were treated with 5 μM PYR for 24 h. Nuclear and cytoplasmic fractions were analyzed by immunoblotting with the indicated antibodies. PARP and tubulin were used as nuclear and cytoplasmic markers, respectively. C, U3A human fibrosarcoma cells stably expressing STAT3-dependent luciferase were pretreated with 10 μM PYR for 1 h and stimulated with 10 ng/ml oncostatin M (OSM) for 30 min. Nuclear and cytoplasmic fractions were analyzed by immunoblotting with the indicated antibodies. […] D, SKBR3 cells were treated with 10 μM PYR for 1 h, stimulated with 10 ng/ml leukemia inhibitory factor (LIF) for 30 min, and analyzed by chromatin immunoprecipitation with antibodies to STAT3 and RNA pol II (pol II). Binding at the indicated target genes was assessed by quantitative RT–PCR. Data are expressed as percent of input. […]
# Cells were lysed on ice for 15 min in either radioimmunoprecipitation assay lysis buffer (Boston BioProducts) or EBC lysis buffer (50 mM Tris [pH 8.0], 250 mM NaCl, and 0.5% Nonidet-P40 [NP-40]) containing phosphatase and complete protease inhibitors (Roche). […] Immunoblots were developed, and band intensity was quantified using Fiji ([42]).
# physchem = conditions: DHFR enzymatic assay medium with 5% DMSO, 37 °C, aqueous with cosolvent or surfactant or cyclodextrin, kinetic from dmso stock
# DHFR = biological target: T1, DHFR (Homo sapiens, UniProt P00374); conditions: DHFR enzymatic IC50
# T1 sequence (P00374 1-187): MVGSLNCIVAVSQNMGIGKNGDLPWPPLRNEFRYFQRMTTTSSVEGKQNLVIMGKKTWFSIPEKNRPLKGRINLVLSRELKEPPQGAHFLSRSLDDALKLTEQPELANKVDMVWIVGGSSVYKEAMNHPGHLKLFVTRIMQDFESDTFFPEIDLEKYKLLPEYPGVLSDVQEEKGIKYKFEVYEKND
# CHCHD2 = CHCHD2 (Homo sapiens, UniProt Q9Y6H1); assay: Cellular thermal shift assay (CETSA) in intact U3A cells; format: cell-based; conditions: 10 μM, 10 min
# Description: Protein abundance was measured by immunoblotting and band quantification.
# U3A cells were cultured in DMEM (Thermo Fisher Scientific) with 10% heat-inactivated fetal bovine serum and 1% penicillin/streptomycin. […] Cells were washed once with PBS, harvested using trypsin, and centrifuged at 300g. The pellet was resuspended in Tris-buffered saline (TBS) supplemented with cOmplete protease inhibitor cocktail (Roche), aliquoted (50 μl; 8 × 10^5 cells per temperature) into PCR strip tubes, and heated at the indicated temperature in a Veriti Thermal Cycler (Applied Biosystems) for 3 min, then cooled for another 3 min at room temperature. Cells were then lysed by freeze–thawing three times with 3-min incubations in an ethanol/dry ice bath and a water bath at 37 °C. The lysates were then centrifuged at 17,000g for 20 min at 4 °C to remove cellular debris and pelleted protein aggregates. Supernatants (40 μl) were transferred to new tubes and prepared for immunoblotting. […] DHFR stabilization was evaluated with superoxide dismutase 1 as a thermostable loading control. Band intensities were quantified using Fiji ([42]) and then plotted and fitted in GraphPad Prism (GraphPad Software, Inc) to obtain apparent Tagg values.
# (A) DHFR protein levels in Fig 2C were quantified and plotted. […] Soluble protein levels were analyzed by immunoblotting with the indicated antibodies. […]
# [14] = Apoptosis assay (FITC annexin V / propidium iodide flow cytometry); format: cell-based; conditions: human; U3A cells, 6 h time point, same treatment as ATP assay; read-out: viable cells
# Sequence of CHCHD2 (Q9Y6H1 whole entry): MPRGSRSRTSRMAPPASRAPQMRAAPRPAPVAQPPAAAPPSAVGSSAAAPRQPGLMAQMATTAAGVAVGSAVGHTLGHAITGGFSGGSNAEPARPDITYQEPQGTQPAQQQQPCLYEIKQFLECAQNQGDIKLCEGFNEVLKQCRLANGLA
# Sequence of proteins of U3A human fibrosarcoma cells (4462 proteins detected) (Homo sapiens, UniProt P49915) (P49915 whole entry): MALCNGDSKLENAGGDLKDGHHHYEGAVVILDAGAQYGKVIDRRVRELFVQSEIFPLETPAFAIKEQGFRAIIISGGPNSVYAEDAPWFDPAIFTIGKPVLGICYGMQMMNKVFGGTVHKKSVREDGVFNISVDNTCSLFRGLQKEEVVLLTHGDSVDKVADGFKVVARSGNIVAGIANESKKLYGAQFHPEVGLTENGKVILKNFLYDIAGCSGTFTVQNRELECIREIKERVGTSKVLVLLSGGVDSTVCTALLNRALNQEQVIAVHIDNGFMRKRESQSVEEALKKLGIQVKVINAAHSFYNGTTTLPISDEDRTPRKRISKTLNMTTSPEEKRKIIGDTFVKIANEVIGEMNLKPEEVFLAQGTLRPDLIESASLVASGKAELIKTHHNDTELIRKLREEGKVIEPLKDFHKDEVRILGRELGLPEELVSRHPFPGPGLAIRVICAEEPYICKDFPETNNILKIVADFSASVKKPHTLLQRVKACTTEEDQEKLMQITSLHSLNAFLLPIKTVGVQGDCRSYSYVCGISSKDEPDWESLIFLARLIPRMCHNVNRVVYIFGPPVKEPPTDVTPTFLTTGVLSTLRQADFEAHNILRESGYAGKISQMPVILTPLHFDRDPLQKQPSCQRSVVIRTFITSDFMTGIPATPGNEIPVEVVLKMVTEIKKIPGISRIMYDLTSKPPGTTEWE
# Sequence of proteins of U3A human fibrosarcoma cells (4462 proteins detected) (Homo sapiens, UniProt Q99633) (Q99633 whole entry): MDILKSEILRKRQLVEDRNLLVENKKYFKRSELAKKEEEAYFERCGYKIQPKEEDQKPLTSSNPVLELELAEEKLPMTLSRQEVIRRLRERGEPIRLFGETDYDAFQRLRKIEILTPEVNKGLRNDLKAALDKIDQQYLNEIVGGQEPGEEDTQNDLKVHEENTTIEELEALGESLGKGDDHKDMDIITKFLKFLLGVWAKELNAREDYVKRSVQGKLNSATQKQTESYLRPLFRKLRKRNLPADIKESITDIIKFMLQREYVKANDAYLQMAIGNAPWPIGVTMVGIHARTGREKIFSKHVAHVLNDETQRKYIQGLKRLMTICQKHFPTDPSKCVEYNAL
# Sequence of proteins of U3A human fibrosarcoma cells (4462 proteins detected) (Homo sapiens, UniProt P00519) (P00519 whole entry): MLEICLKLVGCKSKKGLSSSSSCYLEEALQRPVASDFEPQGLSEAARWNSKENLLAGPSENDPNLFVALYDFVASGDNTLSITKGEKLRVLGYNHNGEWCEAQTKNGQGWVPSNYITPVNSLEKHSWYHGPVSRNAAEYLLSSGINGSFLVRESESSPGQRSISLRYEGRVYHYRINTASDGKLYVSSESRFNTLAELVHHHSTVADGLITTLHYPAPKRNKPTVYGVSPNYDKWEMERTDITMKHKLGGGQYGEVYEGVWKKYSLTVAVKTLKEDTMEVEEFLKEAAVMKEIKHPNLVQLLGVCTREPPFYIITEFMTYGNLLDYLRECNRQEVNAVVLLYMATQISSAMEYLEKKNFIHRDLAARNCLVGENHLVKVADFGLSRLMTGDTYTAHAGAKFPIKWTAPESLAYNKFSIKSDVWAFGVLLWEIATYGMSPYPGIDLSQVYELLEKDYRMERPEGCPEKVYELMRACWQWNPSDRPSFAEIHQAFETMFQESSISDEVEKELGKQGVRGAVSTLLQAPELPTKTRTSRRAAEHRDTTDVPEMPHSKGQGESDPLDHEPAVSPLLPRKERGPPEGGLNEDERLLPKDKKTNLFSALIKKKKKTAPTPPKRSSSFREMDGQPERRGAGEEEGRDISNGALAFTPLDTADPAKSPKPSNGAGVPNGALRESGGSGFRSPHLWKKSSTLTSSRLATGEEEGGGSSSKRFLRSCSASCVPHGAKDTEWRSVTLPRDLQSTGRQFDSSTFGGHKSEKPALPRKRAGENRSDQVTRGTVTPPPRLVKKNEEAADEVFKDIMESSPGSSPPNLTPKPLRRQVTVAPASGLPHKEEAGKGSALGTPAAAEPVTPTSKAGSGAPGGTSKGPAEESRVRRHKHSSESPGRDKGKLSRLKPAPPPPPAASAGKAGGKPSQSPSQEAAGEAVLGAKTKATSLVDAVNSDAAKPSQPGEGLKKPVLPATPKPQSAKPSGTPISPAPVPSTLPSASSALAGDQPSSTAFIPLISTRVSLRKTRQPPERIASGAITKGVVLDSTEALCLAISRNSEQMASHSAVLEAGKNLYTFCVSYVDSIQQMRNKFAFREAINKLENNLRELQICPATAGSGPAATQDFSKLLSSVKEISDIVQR
# Sequence of proteins of U3A human fibrosarcoma cells (4462 proteins detected) (Homo sapiens, UniProt O00244) (O00244 whole entry): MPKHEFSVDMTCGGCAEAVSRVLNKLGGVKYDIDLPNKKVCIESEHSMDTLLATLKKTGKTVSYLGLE
# Sequence of proteins of U3A human fibrosarcoma cells (4462 proteins detected) (Homo sapiens, UniProt P06748) (P06748 whole entry): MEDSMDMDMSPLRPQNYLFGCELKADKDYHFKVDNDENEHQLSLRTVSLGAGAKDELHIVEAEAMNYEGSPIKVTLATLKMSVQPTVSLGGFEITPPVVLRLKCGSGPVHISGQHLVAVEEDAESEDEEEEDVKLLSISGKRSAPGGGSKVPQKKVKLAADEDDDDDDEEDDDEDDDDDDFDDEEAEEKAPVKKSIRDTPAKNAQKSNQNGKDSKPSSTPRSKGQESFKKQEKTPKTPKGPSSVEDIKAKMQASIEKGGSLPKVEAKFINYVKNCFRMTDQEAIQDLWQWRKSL
# Sequence of proteins of U3A human fibrosarcoma cells (4462 proteins detected) (Homo sapiens, UniProt Q12931) (Q12931 60-704): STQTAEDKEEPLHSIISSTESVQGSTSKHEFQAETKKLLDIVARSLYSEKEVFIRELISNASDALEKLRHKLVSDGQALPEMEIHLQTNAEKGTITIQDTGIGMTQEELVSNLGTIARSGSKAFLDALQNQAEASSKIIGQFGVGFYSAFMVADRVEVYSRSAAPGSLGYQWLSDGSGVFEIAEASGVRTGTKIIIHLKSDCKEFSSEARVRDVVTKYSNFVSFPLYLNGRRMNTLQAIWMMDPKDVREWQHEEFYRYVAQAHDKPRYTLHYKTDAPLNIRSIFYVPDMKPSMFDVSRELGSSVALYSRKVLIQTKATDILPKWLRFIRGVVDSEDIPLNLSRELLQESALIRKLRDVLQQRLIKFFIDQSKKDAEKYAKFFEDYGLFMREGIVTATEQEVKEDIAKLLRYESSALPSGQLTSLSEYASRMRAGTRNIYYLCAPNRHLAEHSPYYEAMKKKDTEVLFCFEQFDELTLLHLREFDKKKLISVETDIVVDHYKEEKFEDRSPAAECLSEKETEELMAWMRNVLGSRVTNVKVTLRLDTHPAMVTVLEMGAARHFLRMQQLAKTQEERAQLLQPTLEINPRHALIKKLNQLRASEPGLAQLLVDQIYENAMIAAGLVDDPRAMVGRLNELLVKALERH
# Sequence of proteins of U3A human fibrosarcoma cells (4462 proteins detected) (Homo sapiens, UniProt Q8WW01) (Q8WW01 whole entry): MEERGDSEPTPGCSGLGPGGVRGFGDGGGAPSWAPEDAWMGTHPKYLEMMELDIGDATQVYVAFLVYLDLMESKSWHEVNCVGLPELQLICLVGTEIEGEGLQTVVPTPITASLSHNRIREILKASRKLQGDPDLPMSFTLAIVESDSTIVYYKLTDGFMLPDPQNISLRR
# Sequence of proteins of U3A human fibrosarcoma cells (4462 proteins detected) (Homo sapiens, UniProt Q9H3U1) (Q9H3U1 whole entry): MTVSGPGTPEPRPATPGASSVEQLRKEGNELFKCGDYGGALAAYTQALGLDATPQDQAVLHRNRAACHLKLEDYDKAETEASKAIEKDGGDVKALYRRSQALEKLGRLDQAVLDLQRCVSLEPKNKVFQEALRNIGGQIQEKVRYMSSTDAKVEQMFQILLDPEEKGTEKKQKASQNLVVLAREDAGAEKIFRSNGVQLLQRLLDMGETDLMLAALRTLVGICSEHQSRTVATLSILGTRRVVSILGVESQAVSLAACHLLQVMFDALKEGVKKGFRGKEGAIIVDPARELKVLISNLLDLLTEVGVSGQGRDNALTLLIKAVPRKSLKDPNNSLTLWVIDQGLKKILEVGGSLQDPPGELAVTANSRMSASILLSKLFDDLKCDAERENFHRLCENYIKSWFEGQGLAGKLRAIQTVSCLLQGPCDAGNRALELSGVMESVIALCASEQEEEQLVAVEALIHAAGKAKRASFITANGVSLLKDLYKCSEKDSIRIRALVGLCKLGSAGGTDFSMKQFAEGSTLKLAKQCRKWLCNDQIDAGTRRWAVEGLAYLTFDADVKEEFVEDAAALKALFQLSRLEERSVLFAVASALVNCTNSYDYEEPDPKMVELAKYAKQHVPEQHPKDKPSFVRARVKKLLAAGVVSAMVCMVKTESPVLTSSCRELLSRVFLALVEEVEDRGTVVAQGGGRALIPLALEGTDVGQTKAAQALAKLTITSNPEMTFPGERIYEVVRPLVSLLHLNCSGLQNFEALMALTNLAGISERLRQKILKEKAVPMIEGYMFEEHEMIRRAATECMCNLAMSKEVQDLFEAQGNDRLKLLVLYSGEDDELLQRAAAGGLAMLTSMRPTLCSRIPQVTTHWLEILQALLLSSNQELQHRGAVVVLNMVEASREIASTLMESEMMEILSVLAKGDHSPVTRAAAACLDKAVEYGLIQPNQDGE
# Sequence of proteins of U3A human fibrosarcoma cells (4462 proteins detected) (Homo sapiens, UniProt Q92688) (Q92688 whole entry): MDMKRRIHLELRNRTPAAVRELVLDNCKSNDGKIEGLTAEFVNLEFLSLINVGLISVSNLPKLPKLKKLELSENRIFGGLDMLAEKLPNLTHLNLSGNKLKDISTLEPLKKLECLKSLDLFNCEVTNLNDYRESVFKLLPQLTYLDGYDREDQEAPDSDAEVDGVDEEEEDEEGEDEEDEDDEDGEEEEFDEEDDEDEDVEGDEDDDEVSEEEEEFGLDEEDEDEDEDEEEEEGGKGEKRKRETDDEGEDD
smiles,measurement,setting,value
CCc1nc(N)nc(N)c1-c1ccc(Cl)cc1 [pyrimethamine],transcriptional activity of STAT5,STAT5,no effect
same,Log2 (PYR/DMSO),[1],0.14
same,Log2 (PYR/DMSO),[2],0.21
same,Log2 (PYR/DMSO),[3],-0.04
same,Log2 (PYR/DMSO),[4],-0.03
same,Log2 (PYR/DMSO),[5],0.13
same,Log2 (PYR/DMSO),[6],0.17
same,Log2 (PYR/DMSO),[7],0.21
same,Log2 (PYR/DMSO),[8],0.17
same,"Log2 (PYR/DMSO), TSEN15",[9],-0.15
same,Log2 (PYR/DMSO),[10],-0.04
same,Log2 (PYR/DMSO),[11],0.16
same,pol II recruitment at BCL6,[12],complete loss
same,OSM-stimulated nuclear pSTAT3 or total STAT3,[13],no effect
same,solubility,physchem,> 1000 µM
same,difference in potency between pyrimethamine and methotrexate,DHFR,~500 fold
same,CHCHD2 stabilization by CETSA,CHCHD2,failed to validate
same,"viability at 6 h, 10 μM",[14],~100%

# From PMC8800111 (The Journal of Biological Chemistry, 2021)
